Laboratory results published in patent US20250186541A1, “DLL3 TARGETING PEPTIDES AND CONSTRUCTS THEREOF” (MARIANA ONCOLOGY INC., priority 2023, published 2025).
Numbered stars: 1 amine (or outer) side, 2 acyl side, 3 side chain; on linkers, the order of the positions; unused ones are H or OH. Bridge positions count the residues as written; N and C are the ends. Square brackets hold non-standard residues; d marks the D form. Peptide text beside a SMILES is read from it. * marks the point of attachment. Ala(piperidin-4-yl) = O=C([C@H](CC1CCN([*:3])CC1)N[*:1])[*:2]; DOTA = O=C(O)CN1CCN(CC(=O)O)CCN(CC(=O)*)CCN(CC(=O)O)CC1; Phe(4-CH2NH2) = NCc1ccc(C[C@H](N)C(=O)O)cc1; 1Nal = N[C@@H](Cc1cccc2ccccc12)C(=O)O; 2Nal = N[C@@H](Cc1ccc2ccccc2c1)C(=O)O; NMetBuAla = CN[C@@H](CC(C)(C)C)C(=O)O; pXylylene = c1cc(C[*:2])ccc1C[*:1]; NMeF = CN[C@@H](Cc1ccccc1)C(=O)O; tBuAla = CC(C)(C)C[C@H](N)C(=O)O; AllylGly = C=CC[C@H](N)C(=O)O; Chg = N[C@H](C(=O)O)C1CCCCC1; αMeP = C[C@@]1(C(=O)O)CCCN1; dNle = CCCC[C@@H](N)C(=O)O; dNMeA = CN[C@H](C)C(=O)O; CH2 = C([*:1])[*:2]; Ahx = NCCCCCC(=O)O

Target: T1, human DLL3 (Homo sapiens, UniProt Q9NYJ7)
T1 construct: biotin (biotinylated)
T1 sequence (Q9NYJ7 27-618): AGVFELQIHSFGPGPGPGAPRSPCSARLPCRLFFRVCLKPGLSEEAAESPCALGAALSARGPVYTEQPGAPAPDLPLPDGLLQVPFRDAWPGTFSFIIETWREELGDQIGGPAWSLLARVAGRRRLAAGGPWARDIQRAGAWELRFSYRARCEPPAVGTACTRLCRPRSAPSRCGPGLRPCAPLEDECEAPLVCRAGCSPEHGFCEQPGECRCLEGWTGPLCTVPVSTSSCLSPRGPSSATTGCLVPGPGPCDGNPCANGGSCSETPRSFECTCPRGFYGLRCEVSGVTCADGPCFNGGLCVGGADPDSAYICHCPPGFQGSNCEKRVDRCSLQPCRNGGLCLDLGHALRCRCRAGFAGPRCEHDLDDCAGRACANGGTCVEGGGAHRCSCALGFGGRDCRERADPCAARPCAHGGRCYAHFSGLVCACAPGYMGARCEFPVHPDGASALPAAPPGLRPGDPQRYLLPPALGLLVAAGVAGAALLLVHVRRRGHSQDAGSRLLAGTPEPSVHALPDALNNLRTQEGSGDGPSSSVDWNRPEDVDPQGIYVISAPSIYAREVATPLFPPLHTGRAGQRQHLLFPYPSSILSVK
Test: Affinity determination by Surface Plasmon Resonance (SPR), Biacore, 1:1 binding model
Settings: biotinylated human DLL3 on streptavidin chip, 25° C.; NB = nonbinding
Method: Example 3. Binding Affinity of Targeting Moieties Polypeptides to DLL3 Affinity Determination by Surface Plasmon Resonance (SPR)
SPR studies were performed on the compounds disclosed herein using the following protocol. […] Biotinylated target ligand human DLL3 was immobilized on a streptavidin sensor chip. A reference surface was set up for nonspecific binding and refractive index changes. For analysis of the kinetics of interactions, varying concentrations of samples were injected at a flow rate of 100 μL/min using running buffer containing 20 mM phosphate buffer with 2.7 mM KCl, 137 mM NaCl, 0.05% Surfactant P20 and 2% DMSO. Sensorgram curves were fitted with 1:1 binding model, and affinity and kinetic parameters were obtained using Biacore Insight evaluation 4.0. software.

Point of comparison: `CC(=O)N[C@H](C(=O)N[C@@H](CO)C(=O)N[C@@H](CC(=O)O)C(=O)N[C@H]1CSSC[C@@H](C(=O)N2CCC[C@@]2(C)C(=O)N[C@@H](Cc2ccccc2)C(=O)N[C@@H](CC(=O)O)C(=O)N[C@H](CCCCNC(=O)CN2CCN(CC(=O)O)CCN(CC(=O)O)CCN(CC(=O)O)CC2)C(N)=O)NC(=O)[C@H](CC(N)=O)NC(=O)[C@H](Cc2ccc3ccccc3c2)NC(=O)[C@H](CC2CCNCC2)NC(=O)[C@H](CC(C)(C)C)N(C)C(=O)[C@H](Cc2cccc3ccccc23)NC1=O)C1CCCCC1` [compound 182, Ac-Chg-S-D-C(3)-(1Nal)-(NMe-Tba)-[3-(4-piperidinyl)-Ala]-(2Nal)-N-C(3)-(aMe-P)-F -D-[D-Lys(DOTA)]-NH2] (Ac-[Chg]SDC[1Nal][NMetBuAla][Ala(piperidin-4-yl)][2Nal]NC[αMeP]FD[dK](DOTA)-NH2; disulfide 4-10), Kd 5.39 nM. Against it:
- CC(=O)N[C@@H](CO)C(=O)N[C@@H](CC(=O)O)C(=O)N[C@H]1CSCSC[C@@H](C(=O)N2CCC[C@H]2C(=O)N[C@@H](Cc2ccccc2)C(=O)N[C@@H](CC(=O)O)C(=O)N[C@H](CCCCNC(=O)CN2CCN(CC(=O)O)CCN(CC(=O)O)CCN(CC(=O)O)CC2)C(N)=O)NC(=O)[C@H](CC(N)=O)NC(=O)[C@H](Cc2c[nH]c3ccccc23)NC(=O)[C@H](CCC(N)=O)NC(=O)[C@H](CC(C)C)NC(=O)[C@H](Cc2c[nH]c3ccccc23)NC1=O [Cpd #66, Ac-S-D-C(1)-W-L-Q-W-N-C(1)-P-F-D-D-Lys(DOTA)-CONH2] (Ac-SDCWLQWNCPFD[dK](DOTA)-NH2; linker 3-9 via CH2) — higher, > 300 nM
- CC(=O)N[C@H](C(=O)N[C@@H](CO)C(=O)N[C@@H](CC(=O)O)C(=O)N[C@H]1CSSC[C@@H](C(=O)N(C)[C@H](C)C(=O)N(C)[C@@H](Cc2ccccc2)C(=O)N[C@@H](CC(=O)O)C(=O)N[C@H](CCCCNC(=O)CN2CCN(CC(=O)O)CCN(CC(=O)O)CCN(CC(=O)O)CC2)C(N)=O)NC(=O)[C@H](CC(N)=O)NC(=O)[C@H](Cc2c[nH]c3ccccc23)NC(=O)[C@H](CCC(N)=O)NC(=O)[C@H](CC(C)C)NC(=O)[C@H](Cc2cccc3ccccc23)NC1=O)C1CCCCC1 [compound 110, Ac-(Chg)-S-D-C(3)-(1Nal)-L-Q-W-N-C(3)-(NMeD-Ala)-(NMe-F)-D-D-Lys(DOTA)-CONH2] (Ac-[Chg]SDC[1Nal]LQWNC[dNMeA][NMeF]D[dK](DOTA)-NH2; disulfide 4-10) — higher, > 30 nM
- CC(C)C[C@@H]1NC(=O)[C@H](Cc2c[nH]c3ccccc23)NC(=O)[C@@H](NC(=O)[C@H](CC(=O)O)NC(=O)[C@H](CO)NC(=O)CCCCCNC(=O)CN2CCN(CC(=O)O)CCN(CC(=O)O)CCN(CC(=O)O)CC2)CSSC[C@@H](C(=O)N2CCC[C@H]2C(=O)N[C@@H](Cc2cccc3ccccc23)C(=O)N[C@@H](CC(=O)O)C(N)=O)NC(=O)[C@H](CC(N)=O)NC(=O)[C@H](Cc2c[nH]c3ccccc23)NC(=O)[C@H](CCC(N)=O)NC1=O [compound 39, DOTA-Ahx-S-D-C(3)-W-L-Q-W-N-C(3)-P-(1Nal)-D-CONH2] ({DOTA-Ahx}-SDCWLQWNCP[1Nal]D-NH2; disulfide 3-9) — higher, > 100 nM
- CC(=O)N[C@H](C(=O)N[C@@H](CO)C(=O)N[C@@H](CC(=O)O)C(=O)N[C@H]1CSSC[C@@H](C(=O)N2CCC[C@@H]2C(=O)N[C@@H](Cc2ccccc2)C(=O)N[C@@H](CC(=O)O)C(=O)N[C@H](CCCCNC(=O)CN2CCN(CC(=O)O)CCN(CC(=O)O)CCN(CC(=O)O)CC2)C(N)=O)NC(=O)[C@H](CC(N)=O)NC(=O)[C@H](Cc2c[nH]c3ccccc23)NC(=O)[C@H](CCC(N)=O)NC(=O)[C@H](CC(C)C)NC(=O)[C@H](Cc2cccc3ccccc23)NC1=O)C1CCCCC1 [compound 116, Ac-(Chg)-S-D-C(3)-(1Nal)-L-Q-W-N-C(3)-(D-Pro)-F-D-D-Lys(DOTA)-CONH2] (Ac-[Chg]SDC[1Nal]LQWNC[dP]FD[dK](DOTA)-NH2; disulfide 4-10) — higher, > 30 nM
- CC(=O)N[C@H](C)C(=O)N[C@@H](CO)C(=O)N[C@@H](CC(=O)O)C(=O)N[C@H]1CSSC[C@@H](C(=O)N2CCC[C@@]2(C)C(=O)N[C@@H](Cc2ccccc2)C(=O)N[C@@H](CC(=O)O)C(=O)N[C@H](CCCCNC(=O)CN2CCN(CC(=O)O)CCN(CC(=O)O)CCN(CC(=O)O)CC2)C(N)=O)NC(=O)[C@H](CC(N)=O)NC(=O)[C@H](Cc2ccc3ccccc3c2)NC(=O)[C@H](CC2CCNCC2)NC(=O)[C@H](CC(C)(C)C)NC(=O)[C@H](Cc2cccc3ccccc23)NC1=O [compound 146, Ac-(D-Ala)-S-D-C(3)-(1Nal)-(t-Bu-Ala)-[3-(4-piperidinyl)-Ala]-(2Nal)-N-C(3)-(aMe-P)-F -D-D-Lys(DOTA)-CONH2] (Ac-[dA]SDC[1Nal][tBuAla][Ala(piperidin-4-yl)][2Nal]NC[αMeP]FD[dK](DOTA)-NH2; disulfide 4-10) — 19-fold lower, 0.29 nM
- CCCC[C@@H](NC(C)=O)C(=O)N[C@@H](CO)C(=O)N[C@@H](CC(=O)O)C(=O)N[C@H]1CSSC[C@@H](C(=O)N2CCC[C@H]2C(=O)N[C@@H](Cc2ccccc2)C(=O)N[C@@H](CC(=O)O)C(=O)N[C@H](CCCCNC(=O)CN2CCN(CC(=O)O)CCN(CC(=O)O)CCN(CC(=O)O)CC2)C(N)=O)NC(=O)[C@H](CC(N)=O)NC(=O)[C@H](Cc2c[nH]c3ccccc23)NC(=O)[C@H](CCC(N)=O)NC(=O)[C@H](CC(C)C)NC(=O)[C@H](Cc2cccc3ccccc23)NC1=O [compound 103, Ac-(D-Nle)-S-D-C(3)-(1Nal)-L-Q-W-N-C(3)-P-F-D-D-Lys(DOTA)-CONH2] (Ac-[dNle]SDC[1Nal]LQWNCPFD[dK](DOTA)-NH2; disulfide 4-10) — 15-fold lower, 0.35 nM
- CNC(=O)[C@@H](CCCCNC(=O)CN1CCN(CC(=O)O)CCN(CC(=O)O)CCN(CC(=O)O)CC1)NC(=O)[C@H](CC(=O)O)NC(=O)[C@H](Cc1ccccc1)NC(=O)[C@]1(C)CCCN1C(=O)[C@@H]1CSSC[C@H](NC(=O)[C@H](CC(=O)O)NC(=O)[C@H](CO)NC(=O)[C@@H](C)NC(C)=O)C(=O)N[C@@H](Cc2cccc3ccccc23)C(=O)N[C@@H](CC(C)(C)C)C(=O)N[C@@H](CCC(N)=O)C(=O)N[C@@H](Cc2ccc3ccccc3c2)C(=O)N[C@@H](CC(N)=O)C(=O)N1 [Cpd #147, Ac-(D-Ala)-S-D-C(3)-(1Nal)-(t-Bu-Ala)-Q-(2Nal)-N-C(3)-(aMe-P)-F -D-[D-Lys(DOTA)]-CONHMe] (Ac-[dA]SDC[1Nal][tBuAla]Q[2Nal]NC[αMeP]FD[dK](DOTA)-NHMe; disulfide 4-10) — 41-fold lower, 0.13 nM
- CC(=O)N[C@H](C(=O)N[C@@H](CO)C(=O)N[C@@H](CC(=O)O)C(=O)N[C@H]1CSCc2ccc(cc2)CSC[C@@H](C(=O)N2CCC[C@@]2(C)C(=O)N[C@@H](Cc2ccccc2)C(=O)N[C@@H](CC(=O)O)C(=O)N[C@H](CCCCNC(=O)CN2CCN(CC(=O)O)CCN(CC(=O)O)CCN(CC(=O)O)CC2)C(N)=O)NC(=O)[C@H](CC(N)=O)NC(=O)[C@H](Cc2c[nH]c3ccccc23)NC(=O)[C@H](CCC(N)=O)NC(=O)[C@H](CC(C)C)NC(=O)[C@H](Cc2cccc3ccccc23)NC1=O)C1CCCCC1 [compound 145, Ac-(Chg)-S-D-C(pDBX)-(1Nal)-L-Q-W-N-C(2)-(aMe-P)-F-D-D-Lys(DOTA)-CONH2] (Ac-[Chg]SDC[1Nal]LQWNC[αMeP]FD[dK](DOTA)-NH2; linker 4-10 via pXylylene) — higher, > 30 nM
- CC(=O)N[C@@H](CO)C(=O)N[C@@H](CO)C(=O)N[C@@H](CC(=O)O)C(=O)N[C@H]1CSSC[C@@H](C(=O)N2CCC[C@H]2C(=O)N[C@@H](Cc2ccccc2)C(=O)N[C@@H](CC(=O)O)C(=O)N[C@H](CCCCNC(=O)CN2CCN(CC(=O)O)CCN(CC(=O)O)CCN(CC(=O)O)CC2)C(N)=O)NC(=O)[C@H](CC(N)=O)NC(=O)[C@H](Cc2c[nH]c3ccccc23)NC(=O)[C@H](CCC(N)=O)NC(=O)[C@H](CC(C)C)NC(=O)[C@H](Cc2c[nH]c3ccccc23)NC1=O [compound 78, Ac-Ser-S-D-C(3)-W-L-Q-W-N-C(3)-P-F-D-D-Lys(DOTA)-CONH2] (Ac-SSDCWLQWNCPFD[dK](DOTA)-NH2; disulfide 4-10) — 3-fold higher, 16 nM
- CC(=O)N[C@@H](CC1CCNCC1)C(=O)N[C@@H](CO)C(=O)N[C@@H](CC(=O)O)C(=O)N[C@H]1C/C=C/C[C@@H](C(=O)N2CCC[C@@]2(C)C(=O)N[C@@H](Cc2ccccc2)C(=O)N[C@@H](CC(=O)O)C(N)=O)NC(=O)[C@H](CC(N)=O)NC(=O)[C@H](Cc2ccc3ccccc3c2)NC(=O)[C@H](Cc2ccc(CNC(=O)CN3CCN(CC(=O)O)CCN(CC(=O)O)CCN(CC(=O)O)CC3)cc2)NC(=O)[C@H](CC(C)(C)C)NC(=O)[C@H](Cc2cccc3ccccc23)NC1=O [compound 202, Ac-[3-(4-piperidinyl)-Ala]-S-D-AllyG(4)-(1Nal)-(t-Bu-Ala)-[PAF(DOTA)]-(2Nal)-N-AllyG(4)-(aMe-P)-F-D-CONH2] (Ac-[Ala(piperidin-4-yl)]SD[AllylGly][1Nal][tBuAla][Phe(4-CH2NH2)](DOTA)[2Nal]N[AllylGly][αMeP]FD-NH2; staple (E) 4-10) — 10-fold lower, 0.53 nM
